From paper PMC5698177 (Nature chemical biology, 2017) come the findings set out here.

This assay concerns chPylRS. Description: aminoacylation of […]-labeled tRNA. Format: biochemical, Methanosarcina mazei; Methanosarcina barkeri. The conditions noted are these: read-out: KM (mM), ncAA; M. mazei tRNA(Pyl) transcript, 10 mM ATP, 10 mM MgCl2, pH 7.2, 37 °C.

On to `C[C@@H]1CC=N[C@H]1C(=O)NCCCC[C@H](N)C(=O)O` [compound 1, Pyl], for which the Michaelis-Menten constant (Km) was 0.0076 ± 0.0002 mM.

For `CC(C)(C)OC(=O)NCCCC[C@H](N)C(=O)O` [compound 12, BocK], the Km is 2.91 ± 0.1 mM.
